Results from patent US5807535A, “Metal complexes of hydroxyaryl containing aminocarboxylic acid chelating agents” (Australian Nuclear Science & Technology Organisation, priority 1992, dated 1998).
Read-outs that look alike come from different tables or passages of the source. One block for each compound: values may come before it.

Legend:
[1] = Biodistribution of 67Ga complexes in mice; format: in vivo, balb/c mice
Procedure: To ligand (50 μL, 10 mg/mL, 0.2 M NaOAc, […]) was added ^67 Ga citrate (18.5 MBq) and the resultant mixture diluted to 1 mL (0.2 M NaOAc, pH 7). The pH was adjusted to 12 with 1 M NaOH (20 μL) and heated at 40° C. for 40 min. The final volume was adjusted (to 5 mL) with saline and sterilised by filtering through a 0.22 μm filter.
Each animal was injected via tail vein with ^67 Ga complex (100 μL, ~3.7×10^5 Bq). Animals were sacrificed at various time intervals (5 animals per time point/6 time points). Data are illustrated in FIG. 26-30 and in Tables 13-17.
Each ^67 Ga-ligand complex has been evaluated in balb/c mice. […] (see FIG. 26-30).

[2] = Biodistribution of compound No. 6 in mice (Table 6); format: in vivo, Balb/c mice; conditions: mouse; for tissue uptake at 0.05 h: 3 min
From the text: (§1) A series of derivatives incorporating carboxyl and phenolate donor groups (1-6) were synthesised by literature method and their radiolabelling characteristic and biological behaviour evaluated. Initial work involved an investigation of radiochemical properties of the ^99m Tc complexes of the ligands and their biodistribution in rats and mice (see Tables 1-6 and 8-12).
(§2) A typical method of radiolabelling of the chelator was achieved by dissolving the chelator in a basic solution of saline. The pH was then adjusted to approx. 6 with HCl. Excess stannous chloride was added to the resultant solution followed by one equivalent volume of sodium ^99m TcO4 (10-50 mCi/ml). Final concentration of the chelator was approx. 1 mg/ml. The efficacy of labelling was determined by ITLC-SG. For each product only one main radiochemical species was observed. Each complex was diluted to 15 μCi/100 μl with saline. […] (See FIGS. 1A and 1B).

[3] = Biodistribution of 99mTc complexes in mice; format: in vivo, Balb/c mice
From the text: as §1, §2

[4] = lymphoma diagnosis; cited from earlier work
[5] = blood, read-out: biodistribution blood
[6] = bone, read-out: biodistribution bone
[7] = brain, read-out: biodistribution brain
[8] = heart, read-out: biodistribution heart
[9] = kidneys, read-out: biodistribution kidneys
[10] = liver, read-out: biodistribution liver
[11] = lungs, read-out: biodistribution lungs
[12] = muscle, read-out: biodistribution muscle
[13] = pancreas, read-out: biodistribution pancreas
[14] = skin, read-out: biodistribution skin
[15] = spleen, read-out: biodistribution spleen
[16] = stomach, read-out: biodistribution stomach
[17] = tail, read-out: biodistribution tail
[18] = thymus, read-out: biodistribution thymus
[19] = thyroid, read-out: biodistribution thyroid
[20] = total git, read-out: biodistribution tot GIT
[21] = urine, read-out: biodistribution urine

biodistribution bone ([1]; 1 min): 4.33 % ID
biodistribution kidney ([1]; 1 min): 9.95 % ID
biodistribution liver ([1]; 1 min): 26.45 % ID
biodistribution muscle ([1]; 1 min): 17.93 % ID
biodistribution skin ([1]; 1 min): 13.91 % ID
biodistribution spleen ([1]; 1 min): 0.22 % ID
biodistribution bone ([1]; 3 min): 2.41 % ID
biodistribution kidney ([1]; 3 min): 5.24 % ID
biodistribution liver ([1]; 3 min): 34.06 % ID
biodistribution muscle ([1]; 3 min): 10.67 % ID
biodistribution skin ([1]; 3 min): 12.80 % ID
biodistribution spleen ([1]; 3 min): 0.08 % ID
biodistribution bone ([1]; 5 min): 1.67 % ID
biodistribution kidney ([1]; 5 min): 3.36 % ID
biodistribution liver ([1]; 5 min): 30.21 % ID
biodistribution muscle ([1]; 5 min): 6.35 % ID
biodistribution skin ([1]; 5 min): 10.62 % ID
biodistribution spleen ([1]; 5 min): 0.04 % ID
biodistribution bone ([1]; 10 min): 0.96 % ID
biodistribution kidney ([1]; 10 min): 1.98 % ID
biodistribution liver ([1]; 10 min): 18.58 % ID
biodistribution muscle ([1]; 10 min): 4.37 % ID
biodistribution skin ([1]; 10 min): 5.76 % ID
biodistribution spleen ([1]; 10 min): 0.03 % ID
biodistribution bone ([1]; 30 min): 0.34 % ID
biodistribution kidney ([1]; 30 min): 0.79 % ID
biodistribution liver ([1]; 30 min): 3.15 % ID
biodistribution muscle ([1]; 30 min): 7.73 % ID
biodistribution skin ([1]; 30 min): 0.86 % ID
biodistribution spleen ([1]; 30 min): 0.01 % ID
biodistribution kidney ([1]; 120 min): 0.06 % ID
biodistribution liver ([1]; 120 min): 1.33 % ID
biodistribution muscle ([1]; 120 min): 1.85 % ID
biodistribution skin ([1]; 120 min): 0.10 % ID
biodistribution spleen ([1]; 120 min): 0.00 % ID
tissue uptake at 0.05 h [2, 5]: 10.7 %ID/g
tissue uptake at 5 min [2, 5]: 7.83 %ID/g
tissue uptake at 0.05 h [2, 6]: 1.91 %ID/g
tissue uptake at 5 min [2, 6]: 1.39 %ID/g
tissue uptake at 0.05 h [2, 7]: 0.74 %ID/g
tissue uptake at 5 min [2, 7]: 0.35 %ID/g
tissue uptake at 0.05 h [2, 8]: 3.84 %ID/g
tissue uptake at 5 min [2, 8]: 2.8 %ID/g
tissue uptake at 0.05 h [2, 9]: 24.1 %ID/g
tissue uptake at 5 min [2, 9]: 18.4 %ID/g
tissue uptake at 0.05 h [2, 10]: 6.52 %ID/g
tissue uptake at 5 min [2, 10]: 9.39 %ID/g
tissue uptake at 0.05 h [2, 11]: 6.38 %ID/g
tissue uptake at 5 min [2, 11]: 4.66 %ID/g
tissue uptake at 0.05 h [2, 12]: 1.81 %ID/g
tissue uptake at 5 min [2, 12]: 1.26 %ID/g
tissue uptake at 0.05 h [2, 13]: 1.86 %ID/g
tissue uptake at 5 min [2, 13]: 1.41 %ID/g
tissue uptake at 0.05 h [2, 14]: 3.96 %ID/g
tissue uptake at 5 min [2, 14]: 3.47 %ID/g
tissue uptake at 0.05 h [2, 15]: 2.24 %ID/g
tissue uptake at 5 min [2, 15]: 1.78 %ID/g
tissue uptake at 0.05 h [2, 16]: 1.78 %ID/g
tissue uptake at 5 min [2, 16]: 6.85 %ID/g
tissue uptake at 0.05 h [2, 17]: 8.94 %ID/g
tissue uptake at 5 min [2, 17]: 6.18 %ID/g
tissue uptake at 0.05 h [2, 18]: 3.67 %ID/g
tissue uptake at 5 min [2, 18]: 2.5 %ID/g
tissue uptake at 0.05 h [2, 19]: 5.76 %ID/g
tissue uptake at 5 min [2, 19]: 3.73 %ID/g
tissue uptake at 0.05 h [2, 20]: 1.03 %ID/g
tissue uptake at 5 min [2, 20]: 2.12 %ID/g
tissue uptake at 0.05 h [2, 21]: 1.3 %ID/g
tissue uptake at 5 min [2, 21]: 0.95 %ID/g
biodistribution GIT ([3]; 1 min): 3.58 % Injected dose
biodistribution bladder ([3]; 1 min): 0.06 % Injected dose
biodistribution blood ([3]; 1 min): 41.63 % Injected dose
biodistribution bone ([3]; 1 min): 7.37 % Injected dose
biodistribution heart ([3]; 1 min): 0.46 % Injected dose
biodistribution kidney ([3]; 1 min): 7.57 % Injected dose
biodistribution liver ([3]; 1 min): 22.44 % Injected dose
biodistribution lungs ([3]; 1 min): 1.71 % Injected dose
biodistribution muscle ([3]; 1 min): 13.95 % Injected dose
biodistribution skin ([3]; 1 min): 8.13 % Injected dose
biodistribution spleen ([3]; 1 min): 0.2 % Injected dose
biodistribution stomach ([3]; 1 min): 0.4 % Injected dose
biodistribution tail ([3]; 1 min): 8.46 % Injected dose
biodistribution urine ([3]; 1 min): 0.07 % Injected dose
biodistribution GIT ([3]; 3 min): 11.98 % Injected dose
biodistribution bladder ([3]; 3 min): 0.08 % Injected dose
biodistribution blood ([3]; 3 min): 15.59 % Injected dose
biodistribution bone ([3]; 3 min): 3.5 % Injected dose
biodistribution heart ([3]; 3 min): 0.2 % Injected dose
biodistribution kidney ([3]; 3 min): 5.68 % Injected dose
biodistribution liver ([3]; 3 min): 35.66 % Injected dose
biodistribution lungs ([3]; 3 min): 0.65 % Injected dose
biodistribution muscle ([3]; 3 min): 7.87 % Injected dose
biodistribution skin ([3]; 3 min): 8.31 % Injected dose
biodistribution spleen ([3]; 3 min): 0.09 % Injected dose
biodistribution stomach ([3]; 3 min): 0.43 % Injected dose
biodistribution tail ([3]; 3 min): 7.37 % Injected dose
biodistribution urine ([3]; 3 min): 0.81 % Injected dose
biodistribution GIT ([3]; 5 min): 27.85 % Injected dose
biodistribution bladder ([3]; 5 min): 0.07 % Injected dose
biodistribution blood ([3]; 5 min): 10.31 % Injected dose
biodistribution bone ([3]; 5 min): 3.86 % Injected dose
biodistribution heart ([3]; 5 min): 0.16 % Injected dose
biodistribution kidney ([3]; 5 min): 4.53 % Injected dose
biodistribution liver ([3]; 5 min): 30.85 % Injected dose
biodistribution lungs ([3]; 5 min): 0.69 % Injected dose
biodistribution muscle ([3]; 5 min): 7.24 % Injected dose
biodistribution skin ([3]; 5 min): 9.28 % Injected dose
biodistribution spleen ([3]; 5 min): 0.14 % Injected dose
biodistribution stomach ([3]; 5 min): 5.42 % Injected dose
biodistribution tail ([3]; 5 min): 7.64 % Injected dose
biodistribution urine ([3]; 5 min): 0.59 % Injected dose
biodistribution GIT ([3]; 10 min): 45.71 % Injected dose
biodistribution bladder ([3]; 10 min): 0.23 % Injected dose
biodistribution blood ([3]; 10 min): 6.34 % Injected dose
biodistribution bone ([3]; 10 min): 2.76 % Injected dose
biodistribution heart ([3]; 10 min): 0.08 % Injected dose
biodistribution kidney ([3]; 10 min): 2.44 % Injected dose
biodistribution liver ([3]; 10 min): 16.04 % Injected dose
biodistribution lungs ([3]; 10 min): 0.45 % Injected dose
biodistribution muscle ([3]; 10 min): 5.27 % Injected dose
biodistribution skin ([3]; 10 min): 5.17 % Injected dose
biodistribution spleen ([3]; 10 min): 0.07 % Injected dose
biodistribution stomach ([3]; 10 min): 3.42 % Injected dose
biodistribution tail ([3]; 10 min): 4.77 % Injected dose
biodistribution urine ([3]; 10 min): 1.231 % Injected dose
biodistribution GIT ([3]; 30 min): 51.18 % Injected dose
biodistribution bladder ([3]; 30 min): 0.2 % Injected dose
biodistribution blood ([3]; 30 min): 9.66 % Injected dose
biodistribution bone ([3]; 30 min): 2.54 % Injected dose
biodistribution heart ([3]; 30 min): 0.11 % Injected dose
biodistribution kidney ([3]; 30 min): 1.9 % Injected dose
biodistribution liver ([3]; 30 min): 14.05 % Injected dose
biodistribution lungs ([3]; 30 min): 0.39 % Injected dose
biodistribution muscle ([3]; 30 min): 6.92 % Injected dose
biodistribution skin ([3]; 30 min): 4.23 % Injected dose
biodistribution spleen ([3]; 30 min): 0.06 % Injected dose
biodistribution stomach ([3]; 30 min): 1.73 % Injected dose
biodistribution tail ([3]; 30 min): 2.41 % Injected dose
biodistribution urine ([3]; 30 min): 1.64 % Injected dose
SMILES: Cc1cc(C)c(O)c(NC(=O)CN(CCN(CC(=O)O)CC(=O)Nc2cc(C)cc(C)c2O)CC(=O)O)c1 [Compound 6]

SMILES: O=C([O-])CC(O)(CC(=O)[O-])C(=O)[O-].[Ga+3] [Ga-67 citrate]
clearance [4]: clears slowly from the blood, through the liver, accumulating in the bowel
uptake at the disease sites [4]: relatively fast and selective uptake at the disease sites
